Experimental data published in patent US20250381204A1, “A CANNABINOID MIXTURE WITH TERPENES FOR THE TREATMENT OF ANXIETY” (priority 2022, published 2025).
Where two headings read alike, the source gives them in different places.

What was measured:
Fish = test: Tank diving experiments (Example 8); type: in vivo
Protocol: Fish were exposed to drug, either pure CBD, CBD containing terpenes, or CBD plus CBG, in a litre of water for 30 min prior to being transferred to a novel tank containing fresh fish water in the absence of drug using a net and their behaviour recorded over a 6 min period using a camera mounted to one side. The vertical position of the fish in the tank can reliably be used as a proxy for an individual's anxiety. For example, the less time a fish spends on the bottom of the tank the less anxious. The response variables were number of visits to the top half of the tank, distance from the bottom of the tank, and proportion of time spent in the bottom third of the tank. Time spent on the bottom, distance travelled and number of top half visits determining using Ethovision software (Noldus). Water was changed, tanks and fish nets cleaned between each fish.
The anxiolytic concentration of CBD was first assessed by treating the fish with 0-15 mg/L CBD.
The ratio of CBD minus terpenes:CBD plus terpenes tested was 2:0, 1.5:0.5, 1:1, 0.5:1.5 and 0:2.

5 dpf zebrafish larvae = type: in vivo, Zebrafish (Danio rerio)
Protocol: Fish were bred and reared in the aquarium facility at Queen Mary University of London, licenced by the UK Home Office. Zebrafish (Danio rerio) adults from the Tuebingen wild type (TUWT) line were kept in glass breeding tanks in fish water that contain sodium bicarbonate (0.9 mM), calcium sulphate (0.05 mM) and marine salts (Sigma, Poole, UK; 0.018 g/l). Fish were maintained on a constant 14 h light: 10 h dark cycle at 28° C. They were fed 2 times a day with Zmsystems® ZM-000 high protein food particle (Tecniplast® UK. London) from 5 dpf-10 dpf, ZM-100 and paramecium from 11 dpf-14 dpf, and, ZM-200 and brineshrimp from 14 dpf-30 dpf. At one month of age, animals were transferred into the aquaria where they were fed Zmsystems® flake food and brineshrimp.
After incubation the 48-well plate was placed in a DanioVision Observation Chamber (Noldus) and the larvae were subjected to a forced dark/light transition assay while still in the compound solution. The assay consisted of a 10 min baseline period in the dark, followed by a 10 min light challenge, followed by a 15 min dark period. DanioVision Observation Chamber controlled the lighting and recorded the assay with an infrared camera (resolution, 30 frames per second (fps)). Footage obtained was processed by EthoVision XT NUMBER (Noldus). Mean distance moved was measured with 10 second intervals.
All statistical analyses were carried out in R version 3.2.2 (R core developer team reference). Data distributions and model fit were initially assessed visually. AIC values were used in model selection. Due to difference in variance between groups we fitted a linear mixed model (LMM) in the gls package (ref).
It was first assessed whether the different compounds and concentrations were associated with differences in locomotion after 30 min exposure. We subsetted the last min in the baseline and fitted an LME with mean distance moved as the response variable, compound as the fixed effect, and individual as the random effect, with a variance structure for compound.
The light challenge and dark phase were subsetted to assess if different compounds and concentrations were associated with different patterns of movement. In the light challenge the increase of movement over time was considered recovery. In the dark phase decrease of movement was considered recovery. We fitted an LME with mean distance moved (in 10 second time bins) as the response variable, the interaction between time and concentration as a fixed effect, individual as the random effect and introduced a variant structure to account for the heterogeneity in variance between drugs.

larvae = test: Forced light/dark transition assay screening hemp extracts, diazepam and caffeine (Example 5); type: in vivo, zebrafish; conditions: for response when the light is switched on (from trace): whole duration of the assay
Protocol: Our forced light/dark transition protocol was as follows. First, there was 10 minutes of total darkness (which we refer to as the baseline period; compounds were introduced at the beginning of the baseline period, and 10 minutes were allotted to allow for drug absorption and acclimation). Next, there was a period of five minutes of light exposure followed by five minutes of dark exposure, repeated three times. Finally, there was an additional five minutes of dark exposure.
A variety of statistical techniques were used to address our hypotheses about the potential anxiolytic and anxiogenic effects of four compounds. In outline: • 1) Overall models were carried out using linear mixed-effect models • 2) Deliberate pairwise comparisons between controls and dosages of interest were carried out using appropriate two-sample comparison tests
All statistical analyses were carried out in R version 3.2.2 (R core developer team). Overall models were linear mixed-effects models (LMMs), and were fitted using the Ime4 package (Bates, Machler, Bolker, & Walker, 2015). Data were transformed as indicated to fit the assumptions of LMMs. Posthoc tests were performed using the multcomp package in R. Data distributions were initially assessed visually and model diagnostics were subsequently checked to assure appropriate fits.
Comparisons between patterns of activity during the light phases (i.e. rate of recovery during light phases, which indicates a possible anxiolytic or anxiogenic effect) were performed by analysing the slope of the linear regression function of individual mean distance vs time during light phases.
For pairwise comparisons on specific concentrations, nonparametric tests are used as indicated on non-normally distributed data.

5 dpf larvae = test: Forced light/dark transition test, 10 min dark-(5 min light-5 min dark)*3-5 min dark (Example 4); type: in vivo, zebrafish
Protocol: • All the tests were done with 5 dpf larvae unless stated otherwise. • A forced light/dark transition test was used. (10 min dark-(5 min light-5 min dark)*3-5 min dark) • The dose response curve was made as follows; • The locomotor activity of the larvae at the last min of acclimation (min 9-10 in the assay), was taken • The mean for each larvae over this period of time was calculated • Then the mean of each condition was calculated • The means plotted are relative to the control, control was set at 1

[1] = 2 mg/L CBD in combination with 0-5 mg/L CBG
[2] = 1% ethanol, 80 mg/L caffeine, 250 μg/L fluoxetine, 100 mM NaCl

In the case of C=C(C)[C@@H]1CCC(C)=C[C@H]1c1c(O)cc(CCCCC)cc1O [CBD, Cannabidiol], the “anxiolytic effect in tank diving (top half visits, distance from bottom, time in bottom third)” value (Fish; 0-15 mg/L CBD, 30 min exposure, 6 min recording) was “anxiolytic effect”.
In the case of CCCCCc1cc(O)c(C/C=C(\C)CCC=C(C)C)c(O)c1 [CBG, Cannabigerol], the “anxiolytic / anxiogenic effect of CBG in the mixture” value (Fish; [1]) was “displays no anxiolytic effect, but may potentially have an undesirable anxiogenic effect”, the “distance from the bottom of the tank” value (Fish; [1]) was “no significant change in the distance from the bottom of the tank with increasing CBG concentration” and the “frequency of visits to the top half of the tank” value (Fish; [1]) was “decreased with increasing concentration of CBG”. For the same compound, the “proportion of time spent in the bottom third of the tank” value (Fish; [1]) was “spend a greater proportion of time in the bottom third of the tank”.
In the case of CNCCC(Oc1ccc(C(F)(F)F)cc1)c1ccccc1 (centres unmarked) [Fluoxetine, fluoxetine], the “basal locomotion (last minute of baseline) vs DMSO” value (from here on “basal locomotion … vs DMSO”) (5 dpf zebrafish larvae; [2]) was “move significantly less than DMSO”, the “movement in the beginning of the dark period / in the dark phase vs DMSO” value (5 dpf zebrafish larvae; [2]) was “move less overall in the dark phase” and the “rate of recovery in the dark phase (decrease of movement over time) vs DMSO” value (from here on “rate … (decrease of movement over time) vs DMSO”) (5 dpf zebrafish larvae; [2]) was “recover less over time”. For the same compound, the “rate of recovery in the light challenge (increase of movement over time) vs DMSO” value (shortened to “rate … (increase of movement over time) vs DMSO”) (5 dpf zebrafish larvae; [2]) was “recover less over time”.
With [Cl-].[Na+] [NaCl] the “basal locomotion … vs DMSO” value (5 dpf zebrafish larvae; zebrafish, in vivo) was “no difference in locomotion”, the “freezing in the light challenge vs DMSO” value (5 dpf zebrafish larvae; zebrafish, in vivo) was “froze less” and the “movement in the beginning of the dark period / in the dark phase vs DMSO” value (5 dpf zebrafish larvae; zebrafish, in vivo) was “no difference in movement in the beginning of the dark period”. For the same compound, the “rate … (decrease of movement over time) vs DMSO” value (5 dpf zebrafish larvae; zebrafish, in vivo) was “recovers slower than DMSO” and the “rate … (increase of movement over time) vs DMSO” value (5 dpf zebrafish larvae; zebrafish, in vivo) was “did not recover differently from DMSO”.
In the case of Cn1c(=O)c2c(ncn2C)n(C)c1=O [caffeine], the “dosage with significantly lower locomotion than control larvae (Tukey posthoc)” value (larvae; after ~10 minutes of exposure) was 80 mg/L, the “dosage as predictor of mean distance moved after ~10 minutes of exposure (LMM)” value (larvae; last minute of baseline, dark) was “Dosage was a significant predictor of mean distance moved after 10 minutes of exposure” and the “dosages significantly different from the control during light phases (Tukey posthoc pairwise comparison)” value (larvae; light phases) was at least 40 mg/L. The “time×dosage and dosage×light phase number as predictors of mean distance moved during light phases (LMM)” value (larvae; light phases) was “Both fixed effects were significant predictors of mean distance moved”, the “response when the light is switched on (from trace)” value (larvae) was “much the same for all doses” and the “basal locomotion … vs DMSO” value (5 dpf zebrafish larvae; [2]) was “move significantly less than DMSO”. The “freezing in the light challenge vs DMSO” value (5 dpf zebrafish larvae; [2]) was “froze less in the beginning of the light challenge”, the “movement in the beginning of the dark period / in the dark phase vs DMSO” value (5 dpf zebrafish larvae; [2]) was “move less overall in the dark phase” and the “rate … (decrease of movement over time) vs DMSO” value (5 dpf zebrafish larvae; [2]) was “recover less over time”. The “rate … (increase of movement over time) vs DMSO” value (5 dpf zebrafish larvae; [2]) was “negative impact of locomotion over time”.
In the case of CN1C(=O)CN=C(c2ccccc2)c2cc(Cl)ccc21 [diazepam], the “rate of recovery (slope) during light phases vs DMSO control” value (larvae; 0.25 μM) was “significantly higher slope, or rate of recovery”, the “rate of recovery (slope of linear regression) during the first light phase (Kruskal-Wallis)” value (larvae; Experiment 1 (diazepam), all dosages) was “faster rate of recovery” and the “mean distance moved over time in the light challenge vs control” value (larvae; Experiment 2 (diazepam), 2.5 μM, minute 10 to 20) was “increases movement over time faster than the control in the light challenge”. For the same compound, the “mean distance moved over time in the dark period vs control” value (larvae; Experiment 2 (diazepam), 2.5 μM, minute 20 to 30) was “decreases movement over time faster than the control in the dark period”, the “mean distance moved in the baseline period (LMM)” value (larvae; Experiment 2 (diazepam), minute 9 to 10) was “no significant difference found in mean distance moved in the baseline period” and the “dosages with significantly lower distance moved than the control fish (Tukey post hoc)” value (larvae; after ~10 minutes of exposure, Experiment 1 (diazepam)) was at least 0.25 µM. The “time×dosage and dosage×light phase number as predictors of mean distance moved during light phases (LMM)” value (larvae; light phases) was “Both fixed effects were significant predictors of mean distance moved”, the “response when the light is switched on (from trace)” value (larvae) was “stops the fish moving to the bottom of the tank” and the “anxiolytic effect (overall conclusion)” value (larvae; zebrafish, in vivo) was “anxiolytic effect”. For the same compound, the effect on locomotor (5 dpf larvae; 5 dpf larvae, dose response) was “impairment diazepam has on locomotor”.
With CCO [ethanol] the “behaviour in the acclimation period” value (5 dpf larvae; 0.25% ethanol) was “start moving erratically”, the “behaviour when turning on the light” value (5 dpf larvae; 0.5% ethanol, most groups freeze) was “starts moving more than before” and the “rate … (decrease of movement over time) vs DMSO” value (5 dpf zebrafish larvae; [2]) was “recovers faster”. The “rate … (increase of movement over time) vs DMSO” value (5 dpf zebrafish larvae; [2]) was “negative impact of locomotion over time”, the “basal locomotion … vs DMSO” value (5 dpf zebrafish larvae; zebrafish, in vivo) was “moved significantly more than DMSO” and the “freezing in the light challenge vs DMSO” value (5 dpf zebrafish larvae; zebrafish, in vivo) was “froze less in the beginning of the light challenge”. The “movement in the beginning of the dark period / in the dark phase vs DMSO” value (5 dpf zebrafish larvae; zebrafish, in vivo) was “moves more at the beginning of the dark period compared to DMSO”.
